# Values quoted from earlier work, collected in patent EP2103596A1, “Process for the preparation of N-(phenylethyl) anilines salts and solvates thereof useful as serotonin 5-HT6 antagonists” (priority 2008, dated 2009).
# Like-named read-outs stand apart in the source and are kept apart here.
# Assays:
# [1] = mice, sub-chronic dosing (10 and 30 mg/kg qd, i.p.)
# [2] = target: CYP2D6 (Homo sapiens, UniProt P10635)
# [3] = rats, sub-chronic dosing (10 and 30 mg/kg qd, i.p.)
# [4] = tested on: more than 70 tested receptors; conditions: selectivity versus more than 70 tested receptors
# Sequence of CYP2D6 (P10635 whole entry): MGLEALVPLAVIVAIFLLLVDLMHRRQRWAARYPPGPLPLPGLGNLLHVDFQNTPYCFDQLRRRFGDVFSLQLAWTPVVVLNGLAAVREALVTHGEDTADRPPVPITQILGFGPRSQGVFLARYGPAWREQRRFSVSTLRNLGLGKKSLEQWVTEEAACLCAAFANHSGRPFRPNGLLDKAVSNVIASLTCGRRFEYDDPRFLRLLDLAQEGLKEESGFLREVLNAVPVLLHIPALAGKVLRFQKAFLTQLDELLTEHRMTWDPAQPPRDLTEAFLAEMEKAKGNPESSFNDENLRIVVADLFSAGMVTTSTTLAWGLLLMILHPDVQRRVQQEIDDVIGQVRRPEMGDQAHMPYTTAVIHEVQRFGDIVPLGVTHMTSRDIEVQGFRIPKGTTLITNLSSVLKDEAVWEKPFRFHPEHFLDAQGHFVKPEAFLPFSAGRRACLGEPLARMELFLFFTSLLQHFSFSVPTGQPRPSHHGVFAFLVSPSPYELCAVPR
structure (smiles),measurement,setting,value
"COc1cc(Cl)cc(C(C)Nc2cc(N3CCNCC3)ccc2S(C)(=O)=O)c1OC.Cl (stereo not shown) [Compound A, [1-(5-Chloro-2,3-dimethoxy-phenyl)-ethyl]-(2-methanesulfonyl-5-piperazin-1-yl-phenyl)-amine hydrochloride salt]",body weight,[1],significant reduction
same,food intake,[1],significant reduction
same,IC50,[2],7.8 µM
same,stability (HLM),,> 90 min
same,body weight,[3],significant reduction
same,food intake,[3],significant reduction
same,safety margin,[4],> 100 fold
